Laboratory results taken from US5756145A, “Durable, Resilient and effective antimicrobial coating for medical devices and method of coating therefor” (priority 1995, dated 1998).
Where a name gives a salt, the structure may show the parent alone.

What was measured:
[1] = system: bacterial and fungal organisms; conditions: cited from earlier work; for bacteriostatic/bactericidal nature / spectrum of antimicrobial activity: general statement; for effect of organic matter on effectiveness: organic matter such as blood
Candida albicans [2] = assay: zones of inhibition on agar plates, Candida albicans (Examples 1, 2, 5, 7); conditions: Init., triple layer, Table 7
Protocol: (§1) Selected single layer and triple layer coated cylinders were then placed on agar plates that had been freshly overlaid with one of the microorganisms shown below in Table 1.
(§2) The coated cylinders were then removed from the serum and placed on agar plates that had been freshly overlaid with one of the microorganisms shown below in Table 2.
(§3) The devices and coating solution were preheated to 45° C. After coating the devices were allowed to dry for about four hours. […] The devices were then allowed to dry for an additional two hours. The resilient coated layer was applied over the durable coated layer by dipping the devices for approximately 5-10 seconds in a collodion solution. The devices were then allowed to dry for an additional two hours. Selected coated devices were then incubated in human serum at 37° C. for one and three weeks.

Pseud. aeruginosa = assay: zones of inhibition on agar plates, Pseud. aeruginosa (Examples 1, 2, 5, 7); conditions: P. aerug, Init., triple layer, Table 7
Protocol: as §1, §2, §3

Staph. epidermidis = assay: zones of inhibition on agar plates, Staph. epidermidis (Examples 1, 2, 5, 7); conditions: S. epidermidis, Init., triple layer, Table 7
Protocol: as §1, §2, §3

protein synthesis = conditions: general statement; cited from earlier work
[3] = cited from earlier work; for solubility in organic solvents: organic solvents/solutions
Staphylococcus aureus = conditions: cited from earlier work
Escherichia coli = conditions: cited from earlier work
Pseudomonas aeruginosa = conditions: cited from earlier work
Candida albicans [4] = conditions: cited from earlier work
[5] = light; cited from earlier work
[6] = system: bacterial DNA-dependent RNA polymerase; conditions: general statement; cited from earlier work

[H]/N=C(\N/C(=N/[H])NCCCCCCNC(=N)NC(=N)Nc1ccc(Cl)cc1)Nc1ccc(Cl)cc1 [Chlorhexidine]
bacteriostatic/bactericidal nature [1]: very rapid bactericidal activity | spectrum of antimicrobial activity [1]: broad range of microorganisms, including gram-positive bacteria (such as staphylococci, Enterococcus species), gram-negative bacteria (such as Escherichia coli and Pseudomonas aeruginosa) and Candida species | effect of organic matter on effectiveness [1]: not affected by the presence of organic matter | Zones of inhibition (Candida albicans [2]): 26 m.m. | Zones of inhibition (Pseud. aeruginosa): 20 m.m. | Zones of inhibition (Staph. epidermidis): 22 m.m.

Cc1ccc(C(C)C)c(O)c1 [Thymol, 5-methyl-2 isopropyl phenol]
bacteriostatic/bactericidal nature [1]: bacteriostatic | spectrum of antimicrobial activity [1]: broad spectrum antimicrobial activity against gram-positive bacteria (such as staphylococci and Enterococcus species), gram-negative bacteria (such as Escherichia coli and Pseudomonas aeruginosa) and Candida species

CC[C@H]1OC(=O)[C@H](C)[C@@H](O[C@H]2C[C@@](C)(OC)[C@@H](O)[C@H](C)O2)[C@H](C)[C@@H](O[C@@H]2O[C@H](C)C[C@H](N(C)C)[C@H]2O)[C@](C)(O)C[C@@H](C)C(=O)[C@H](C)[C@@H](O)[C@]1(C)O [Erythromycin]
spectrum of antimicrobial activity [1]: active against a variety of gram-positive and gram-negative bacteria | inhibition of protein synthesis (protein synthesis): inhibition of protein synthesis without affecting nucleic acid synthesis

Oc1c(Cl)cc(Cl)c(Cl)c1Cc1c(O)c(Cl)cc(Cl)c1Cl [Hexachlorophene]
bacteriostatic/bactericidal nature [1]: bacteriostatic | spectrum of antimicrobial activity [1]: active against staphylococci and other gram-positive bacteria | solubility in organic solvents [3]: soluble | solubility in water ([3]; water): soluble

Cn1sccc1=O [Methylisothiazolone, 2-Methylisothiazolone Hydrochloride]
MIC (Staphylococcus aureus): 80 µg/mL | MIC (Escherichia coli): 40 µg/mL | MIC (Pseudomonas aeruginosa): 80 µg/mL | MIC (Candida albicans [4]): 320 µg/mL | bacteriostatic/bactericidal nature [1]: bacteriostatic | spectrum of antimicrobial activity [1]: broad spectrum antimicrobial activity | photosensitivity [5]: photosensitive | solubility in acetic acid ([3]; acetic acid (rifampin: acetic aqueous solutions)): not soluble | solubility in formic acid ([3]; formic acid): soluble | solubility in organic solvents [3]: soluble

CO[C@H]1/C=C/O[C@@]2(C)Oc3c(C)c(O)c4c(O)c(c(/C=N/N5CCN(C)CC5)c(O)c4c3C2=O)NC(=O)/C(C)=C\C=C\[C@H](C)[C@H](O)[C@@H](C)[C@@H](O)[C@@H](C)[C@H](OC(C)=O)[C@@H]1C [Rifampin]
bacteriostatic/bactericidal nature [1]: bactericidal | spectrum of antimicrobial activity [1]: broad spectrum activity against a wide range of gram-positive and gram-negative bacteria | inhibition of bacterial DNA-dependent RNA polymerase [6]: inhibits bacterial DNA-dependent RNA polymerase activity

CC1=CCC(C(C)(C)O)CC1 (stereo not drawn) [α-Terpineol, α-α-4-trimethyl-3-cyclohexine-1-methanol]
bacteriostatic/bactericidal nature [1]: bacteriostatic | spectrum of antimicrobial activity [1]: broad spectrum antimicrobial activity against gram-positive bacteria (such as staphylococci and Enterococcus species), gram-negative bacteria (such as Escherichia coli and Pseudomonas aeruginosa) and Candida species

CN(C)c1ccc(O)c2c1C[C@H]1C[C@H]3[C@H](N(C)C)C(O)=C(C(N)=O)C(=O)[C@@]3(O)C(O)=C1C2=O [Minocycline]
bacteriostatic/bactericidal nature [1]: primarily bacteriostatic | spectrum of antimicrobial activity [1]: active against a wide range of gram-negative and gram-positive organisms | inhibition of protein synthesis (protein synthesis): inhibiting protein synthesis

CCOc1ccc2ccccc2c1C(=O)N[C@@H]1C(=O)N2[C@@H]1SC(C)(C)[C@@H]2C(=O)O [Nafcillin]
spectrum of antimicrobial activity [1]: effective against both penicillin-G-sensitive and penicillin-G-resistant strains of Staphylococcus aureus as well as against pneumococcus, beta-hemolytic streptococcus, and alpha streptococcus

Cc1cc(O)cc(C)c1Cl [Chloroxylenol, 4-chloro, 3,5-dimethyl phenol]
spectrum of antimicrobial activity [1]: good antimicrobial activity against gram-positive bacteria and fungi, and fair activity against gram-negative bacteria | effect of organic matter on effectiveness [1]: minimally affected by organic matter | Zones of inhibition (Candida albicans [2]): 28 m.m. | Zones of inhibition (Pseud. aeruginosa): 13 m.m. | Zones of inhibition (Staph. epidermidis): 32 m.m.
